The record followed here is US20250161286A1 (AEVIS BIO, INC., priority 2022, published 2025).

The subject of test [1] is iNOS and COX-2. As to the kind of experiment: iNOS and COX-2 protein expression in LPS-stimulated BV-2 cells (immunoblotting). The format is cell-based, mouse. Conditions: BV-2 cells, 3.33, 10 or 30 μM, 1 μg/mL LPS, 24 hours. How it is done: (§1) To further confirm the oxidative stress suppression effect, the content of nitrite released due to an inflammatory response and the expression levels of iNOS, which is an enzyme that produces nitric oxide, and COX-2, which is cyclooxygenase-2, were determined in mouse microglial cells (BV-2, ATCC, Manassas, VA, USA).
(§2) To determine the content of nitrite and the protein expression levels of iNOS and COX-2, BV-2 was seeded in a 12-well plate (Corning, MD, USA) at 1.5×10^5 cells/well, and cultured using a DMEM medium (Corning, MD, USA) containing 10% fetal bovine serum (Corning, MD, USA) and 100 U/ml of penicillin/streptomycin (Corning, MD, USA) at 37° C. in a 5% CO2 incubator for one day for stabilization. […] 1 μg/mL of LPS (Sigma, USA) was added to all experimental groups excluding the non-inflammation-induced group and allowed to react at 37° C. in a 5% CO2 incubator for 24 hours.
The cells from which the cell culture solution was harvested were disrupted by adding a RIPA buffer containing a protease inhibitor cocktail (Thermo Fisher Scientific), and centrifuged at 14,000 rpm for 15 minutes at 4° C. to obtain a cell extract. Equal amounts of the cell extract were loaded, and proteins were separated through SDS-PAGE and then transferred to a PVDF membrane. […]
For orientation: Immunoblotting shows a protein as a band on a membrane.

The subject of test [2] is tyrosine hydroxylase (TH). As to the kind of experiment: Immunohistochemical test of tyrosine hydroxylase in brain of MPTP mice. In kind it is in vivo, mouse. Particulars: oral, versus MPTP group. How it is done: To cause the disease, mice in the G2, G3, G4, and G5 groups were administered MPTP dissolved in saline via an intraperitoneal route at 2-hour intervals four times a day (20 mg/kg/time), while the G1 group received the same amount of saline.
After the end of the test on day 7, the brain tissue of the sacrificed mice was collected, sectioned, and analyzed.
Six mice per group were fixed by perfusion with saline followed by perfusion with 4% paraformaldehyde (Biosesang, cat #PC2031-000-00). Each brain tissue was rapidly frozen after isolation and stored at −80° C. until tissue sectioning. Sections for immunohistochemical testing were embedded in an OCT compound (SAKURA, cat #4583), samples were sectioned into 20 μm-thick sections using a cryomicrotome, Leica CM1950 (Leica Microsystems, Germany), and each section was stored at 4° C. until an antibody reaction. […] Images stained with the tyrosine hydroxylase antibody were observed under a microscope (Olympus, SZ61, BX51), and the OD values, which are immunostaining-positive, observed in the striatum and substantia nigra tissue were measured and analyzed by the Image J program.

The test system of test [3] is iNOS and COX-2. As to the kind of experiment: iNOS and COX-2 mRNA expression in LPS-stimulated BV-2 cells (real-time PCR). Conditions: BV-2 cells, 3.33, 10 or 30 μM, 1 μg/mL LPS, 6 hours. In kind it is cell-based, mouse. How it is done:
Finally, to determine the mRNA expression levels of iNOS and COX-2, BV-2 was seeded in a 6-well plate (Corning, MD, USA) at 5×10^5 cells/well, and cultured using a DMEM medium (Corning, MD, USA) containing 10% fetal bovine serum (Corning, MD, USA) and 100 U/ml of penicillin/streptomycin (Corning, MD, USA) at 37° C. in a 5% CO2 incubator for one day for stabilization. […] 1 μg/mL of LPS (Sigma, USA) was added to all experimental groups excluding the non-inflammation-induced group and allowed to react at 37° C. in a 5% CO2 incubator for 6 hours.
The drug-treated BV-2 underwent RNA prep according to the kit manual using an RNA prep kit (Monarch Total RNA Miniprep kit, NEB, UK), and the concentration was measured using a nanophotometer (NP80, Implen, Germany). […]
The expression level of each oxidative stress-associated gene in the synthesized cDNA was analyzed and compared using Real-Time PCR (StepOne™ Bioscience, USA) equipment. […] The CT value for the gene of each sample obtained through real-time PCR was normalized by the value of the internal control gene (GAPDH) of each sample, the expression level was estimated inversely by 2ΔΔCT calculation, and the resulting value of each group was quantified and expressed as a percentage relative to the LPS-only treatment group.
On the technique in general: In qPCR the cycle at which signal appears reflects the starting amount.

In another test the test system is BV-2 cells. As to the kind of experiment: Nitrite content in culture solution of LPS-stimulated BV-2 cells (Griess Reagent System). In kind it is cell-based, mouse. Particulars: BV-2 cells, 3.33, 10 or 30 μM, 1 μg/mL LPS, 24 hours. How it is done: as §1, §2
The cell culture solution was collected to measure the content of nitrite, and centrifuged at 3,000 rpm for 5 minutes to obtain a supernatant. The concentration of nitrite in the cell culture solution was measured using a microplate reader (NEO2MALPHAB Synergy Neo-2, BioTek, CA, US) according to the manual of the Griess Reagent System (#G2930, Promega, WI, USA).
(In general: Griess reagent forms a coloured azo dye with nitrite.)

Take `Nc1cccc2c1C(=S)N(C1CCC(=O)NC1=O)C2=O` (centres unmarked) [3-MP, 3-thiopomalidomide]: in the test on iNOS and COX-2 [1], the “expression of oxidative stress-associated proteins (iNOS and COX-2)” value is given as “effectively reduced”. The “expression of tyrosine hydroxylase in the substantia nigra” value in test [2] (30 and 90 mg/kg) is listed as “increased in a statistically significant manner”. Also, in test [2] (all doses, particularly 30 mg/kg), the “expression of tyrosine hydroxylase (TH) in the striatum” value is “significantly increased”. Further, the “mRNA expression of oxidative stress-associated gene (iNOS, COX-2)” value with iNOS and COX-2 [3] was “effectively inhibit the mRNA expression of an oxidative stress-associated gene”. Further, in the test on BV-2 cells, the “amount of nitrite released by LPS” value is “effectively reduced the amount of the residual nitrite released by LPS”.
